Reference: patent publication US20160153045A1, “Biomarkers for Increased Risk of Drug-Induced 5-Aminosalicylate Nephrotoxicity” (Severe Adverse Event (SAE) Consortium, priority 2014, published 2016)

Tests used:
patients = details: in vivo; cited from earlier work
[1] = system: Inflammatory bowel disease patients; details: human, in vivo
Description: Methods: Inflammatory bowel disease patients were recruited from 89 sites around the world. Inclusion criteria included normal renal function prior to commencing 5-ASA, ≧50% rise in creatinine any time after starting 5-ASA and physician opinion implicating 5-ASA strong enough to justify drug withdrawal. An adjudication panel identified definite and probable cases from structured case report forms. A genome wide association study was then undertaken with these cases and 4,109 disease controls.
Patient Recruitment: Individual study sites identified and recruited patients with 5-ASA induced nephrotoxicity. This study was open to recruitment at 118 UK research sites (73.8% of the 160 acute NHS trusts in the UK) as well as 45 international sites. In total 77 sites from the UK and 12 sites from outside the UK recruited one or more patients. The protocol was approved by the National Research Ethics Committee South West, Exeter, UK (10/H0203/76) and by all local research and development offices.
Inclusion criteria for patient recruitment required the presence of all of the following: • Patient administered any 5-ASA compound for treatment of inflammatory bowel disease (Crohn's disease, ulcerative colitis or IBD-unclassified) • Patient aged 6 or over • Normal creatinine or estimated glomerular filtration rate (eGFR) prior to first administration of 5-ASA or a creatinine that returned to the normal range after cessation of therapy • Greater than or equal to 50% rise in serum creatinine any time after introduction of 5-ASA • Physician opinion implicating 5-ASA strong enough to justify drug withdrawal, even if temporary
Cases were identified from recruiting sites through clinics and systematic searches of historical records and pathology databases. Gastroenterologists who replied to a 2001-2002 UK survey of 5-ASA induced nephrotoxicity were encouraged to submit cases^10. Clinicians who had submitted adverse drug reaction reports to the Medicines and Healthcare Products Regulatory Agency (MHRA) were invited to consider recruiting patients. Direct advertising to patients through the national patient newsletter was also undertaken. Cases were recruited who developed nephrotoxicity between 1988 and 2013 (73% of cases were diagnosed with renal injury after the year 2000).
Case adjudication: An anonymised case report form detailing demographic, clinical and drug history was completed with the aid of hospital records. Two 6 ml EDTA blood samples were taken at this visit for DNA extraction (BD Vacutainer, USA). The case report forms also requested creatinine levels and their corresponding dates at four time points: 1) at baseline (usually before 5-ASA commenced, but not exclusively), 2) at the recording of first abnormal creatinine value, 3) the worst creatinine value and 4) the best recovered creatinine value. After data collection, the last normal creatinine value before development of renal injury was also obtained, if it was available (92/151 cases), to enable better characterisation of the time period. If a renal biopsy was performed, the anonymised report was requested.
To assess patient eligibility for entry to this study, at least three gastroenterologists and at least one nephrologist reviewed each case for causality at a dedicated in-person adjudication panel meeting. For each case the evidence implicating the 5-ASA as the cause of nephrotoxicity was assessed using an adapted version of the validated Liverpool Adverse Drug Reaction Causality Assessment Tool^16. Patients were classified as definite, probable, possible or unlikely cases of 5-ASA nephrotoxicity based on the adjudicator's independent assessment that the nephrotoxicity was due to 5-ASA treatment. The panel discussed all cases before a final adjudication decision was reached. Only individuals classified as probable or definite cases of 5-ASA induced nephrotoxicity were taken forward for clinical and genetic analyses. […]

SMILES: Nc1ccc(O)c(C(=O)O)c1 [5-ASA, 5-aminosalicylate]
- annual risk of nephrotoxicity (patients): 0.26%
- biopsies with acute interstitial inflammation [1]: 22%
- biopsies with acute on chronic interstitial inflammation [1]: 20%
- biopsies with only chronic inflammatory changes in the interstitium [1]: 58%
- cases with an abnormal creatinine within the first 12 months of treatment [1]: 13%
- cases with full recovery of renal function after drug withdrawal [1]: 30%
- definite cases: second episode of kidney injury when re-challenged with the agent [1]: 5 cases
- patients requiring renal replacement therapy [1]: 15 patients
- renal biopsies with clear evidence of interstitial nephritis [1]: 57 patients
